Where two headings read alike, the source gives them in different places.
Legend:
[1] = test system: Tetranychus cinnabarinus adults; experiment: Determination of acaricidal activity (spray on bean plant leaves with adult spider mites, mortality after 72 hours); type: in vivo; settings: read-out: Mortality (%) against Tetranychus Cinnabarinus Adult
Description: (§1) According to the solubility of test compounds, the compounds are dissolved with acetone or dimethyl sulfoxide, and then diluted with 0.1% Tween 80 solution to form a required concentration of 50 ml test liquid. The content of the acetone or the dimethyl sulfoxide in the total solution is not more than 10%.
The adult spider mites were put into two true leaves of bean plants. After the number of mites was investigated, the solution of certain concentrations of test compounds was sprayed by using a handheld Airbrush. Three replicates were set for each treatment. Then the leaves were maintained in a standard observation room. After 72 hours, the number of surviving mites was investigated, and the mortality rate was calculated. Compounds I-41, KC3, KC4 and MC were selected for parallel determination of activity against Tetranychus cinnabarinus adults.

Plutella xylostella [2] = settings: concentration of 1 ppm; cited from earlier work
Spodoptera litura = settings: concentration of 1 ppm; cited from earlier work
[3] = test system: Tribolium confusum adults; experiment: Determination of Tribolium confusum adults (treated feeding bran, 72 h); type: in vivo; settings: 72 h, read-out: Mortality (%) against Tribolium Confusum Adults
Description: as §1
The test liquid was prepared in the order from low dose to high dose according to the test design. Then, the liquid of different concentrations was added to feeding bran and uniformly stirred, and dried in the shade. Then, the resulting feeding bran was collected in a paper cup. Fifty Tribolium confusum adults with consistent size were put in the paper cup. Three replicates were set for each treatment. Control check was set. The treated test materials were put in an observation room under controlled conditions. After 72 h, the number of dead and surviving adults was investigated.

[4] = test system: western flower thrips nymphs; experiment: Determination of activity against western flower thrips nymphs (sprayed kidney bean leaves, mortality after 72 hours); type: in vivo; settings: Frankliniella occidentalis, read-out: Mortality (%) against Western Flower Thrips Nymphs
Description: as §1
Fresh kidney bean leaves cultured in the glasshouse were selected and uniformly sprayed with 1 ml of the test liquid by using a handheld Airbrush. The leaves were dried naturally and placed in a test tube. Fifteen tidy and healthy western flower thrips nymphs were put into the leaves. Three replicates were set for each treatment. The water treatment was set as control check. After the treatment, the treated tube were placed in a chamber of 24° C., 60%-70% relative humidity and day light. After 72 hours, the number of surviving insects was investigated, and the mortality was calculated.

trips tabaci = settings: concentration of 200 ppm; cited from earlier work
Tetranychus urticae koch = settings: concentration of 200 ppm; cited from earlier work
Spodoptera littoralis = settings: concentration of 200 ppm; cited from earlier work
Plutella xylostella [5] = settings: concentration of 200 ppm; cited from earlier work

SMILES	mortality at 10 µg/mL ([1]; 72 h) [%]	mortality at 100 µg/mL ([1]; 72 h) [%]	mortality at 600 µg/mL ([1]; 72 h) [%]	activities against Plutella xylostella (Plutella xylostella [2])	activities against Spodoptera litura (Spodoptera litura)	mortality at 5 µg/mL [3] [%]	mortality at 20 µg/mL [3] [%]	mortality at 10 µg/mL ([4]; 72 h) [%]	mortality at 100 µg/mL ([4]; 72 h) [%]	mortality at 10 µg/mL ([1]; 10 mg/L, after 72 hours) [%]	mortality at 100 µg/mL ([1]; 100 mg/L, after 72 hours) [%]	mortality at 600 µg/mL ([1]; 600 mg/L, after 72 hours) [%]	activities against trips tabaci (trips tabaci)	activities against Tetranychus urticae koch (Tetranychus urticae koch)	activities against Spodoptera littoralis (Spodoptera littoralis)	activities against Plutella xylostella (Plutella xylostella [5])	mortality at 10 µg/mL ([4]; 10 mg/L, after 72 hours) [%]	mortality at 100 µg/mL ([4]; 100 mg/L, after 72 hours) [%]
CN(C(=O)c1ccccc1)c1cccc(C(=O)Nc2c(Br)cc(C(F)(C(F)(F)F)C(F)(F)F)cc2C(F)(F)F)c1F [KC3, Broflanilide]	0	0	0	greater than or equal to 70%	greater than or equal to 70%	69	80	33	60									
O=C(Nc1cccc(C(=O)Nc2c(Br)cc(C(F)(C(F)(F)F)C(F)(F)F)cc2OC(F)F)c1F)c1ccccc1 [KC4]										0	0	0	greater than or equal to 80%	greater than or equal to 80%	greater than or equal to 80%	greater than or equal to 80%	37	52

Source: patent US12274264B2, “Piperonylic acid derivative and application thereof” (SHENYANG SINOCHEM AGROCHEMICALS R&D CO., LTD., priority 2019, dated 2025)
